Data reported in paper PMC9558907, “Synthesis and pharmacological evaluation of newly detected synthetic cannabinoid receptor agonists AB-4CN-BUTICA, MMB-4CN-BUTINACA, MDMB-4F-BUTICA, MDMB-4F-BUTINACA and their analogs” (Frontiers in Psychiatry, 2022).

Assays:
human CB1 [1] = biological target: T1, human CB1 (Homo sapiens, UniProt P21554); test: competitive radioligand binding assay, displacement of [3H]CP55,940, HEK cell membranes; design: expressed in transfected cells; host or cells: HEK293 cells, P2 membrane preparation; details: [3H]CP55,940 1 nM
human CB2 [2] = biological target: T2, human CB2 (Homo sapiens, UniProt P34972); test: competitive radioligand binding assay, displacement of [3H]CP55,940, HEK cell membranes; design: expressed in transfected cells; host or cells: HEK293 cells, P2 membrane preparation; details: [3H]CP55,940 1 nM
human CB1 [3] = biological target: T1, human CB1; test: fluorescence-based membrane potential assay (GIRK activation) in AtT20 cells; format: cell-based; design: expressed in transfected cells; host or cells: mouse AtT20 FlpIn cells; details: for hCB1 Emax ±SEM: normalised to 1 μM CP55,940; for hCB1 maximal response at 10 μM (footnote d): highest concentration tested, curve not fitted
human CB2 [4] = biological target: T2, human CB2; test: as above; format: cell-based; design: expressed in transfected cells; host or cells: mouse AtT20 FlpIn cells; details: for hCB2 Emax ±SEM: AtT20-hCB2, normalised to 1 μM CP55,940; for EC50: hCB2 EC50, AtT20-hCB2, value in brackets after pEC50
[5] = hCB1 Ki, value in brackets after pKi
[6] = hCB2 Ki, value in brackets after pKi
[7] = hCB1 EC50, AtT20-hCB1, value in brackets after pEC50
[8] = hCB1 pKi ±SEM, mean ± SEM of 3 to 6 independent experiments

T1 sequence (P21554 whole entry): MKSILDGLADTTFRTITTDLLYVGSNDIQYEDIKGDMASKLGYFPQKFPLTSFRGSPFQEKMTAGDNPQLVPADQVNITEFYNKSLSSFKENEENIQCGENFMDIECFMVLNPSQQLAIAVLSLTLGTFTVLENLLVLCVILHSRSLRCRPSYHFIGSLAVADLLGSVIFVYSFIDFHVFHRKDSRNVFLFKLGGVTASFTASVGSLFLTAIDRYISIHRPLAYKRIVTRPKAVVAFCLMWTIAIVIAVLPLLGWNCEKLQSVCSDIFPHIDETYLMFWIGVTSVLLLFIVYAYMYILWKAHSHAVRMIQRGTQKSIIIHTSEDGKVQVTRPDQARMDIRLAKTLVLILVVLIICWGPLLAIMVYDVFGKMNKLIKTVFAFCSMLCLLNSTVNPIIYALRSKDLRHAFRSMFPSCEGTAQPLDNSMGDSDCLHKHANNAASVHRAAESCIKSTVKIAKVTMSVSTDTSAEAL
T2 sequence (P34972 whole entry): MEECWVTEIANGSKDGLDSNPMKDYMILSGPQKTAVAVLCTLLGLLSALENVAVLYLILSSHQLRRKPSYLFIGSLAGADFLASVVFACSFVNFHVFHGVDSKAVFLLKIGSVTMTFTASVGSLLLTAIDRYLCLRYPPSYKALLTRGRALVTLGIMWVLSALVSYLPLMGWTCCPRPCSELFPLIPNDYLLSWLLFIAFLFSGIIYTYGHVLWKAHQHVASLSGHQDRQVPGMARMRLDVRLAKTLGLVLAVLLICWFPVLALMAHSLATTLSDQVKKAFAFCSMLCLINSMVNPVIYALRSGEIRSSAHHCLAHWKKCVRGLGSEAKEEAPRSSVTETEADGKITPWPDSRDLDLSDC

SMILES	Ki (human CB1 [1]; [5]) [nM]	melting point [°C]	Ki (human CB2 [2]; [6]) [nM]	hCB1 Emax ±SEM (human CB1 [3]; AtT20-hCB1)	EC50 (human CB1 [3]; [7]) [nM]	hCB2 Emax ±SEM (human CB2 [4])	EC50 (human CB2 [4]) [nM]	EC50 (human CB1 [3]; hCB1 pEC50 ±SEM, AtT20-hCB1, DNC = did not converge, ND = < 50% change in fluorescence at 10 μM) [nM]	Ki (human CB1 [1]; [8]) [nM]	Ki (human CB2 [2]; hCB2 pKi ±SEM, mean ± SEM of 3 to 6 independent experiments) [nM]	hCB1 maximal response at 10 μM (footnote d) (human CB1 [3]; AtT20-hCB1)	hCB1 maximal response at 10 μM (footnote d) (human CB1 [3]; AtT20-hCB1, listed as APP-4F-BUTICA (27))	hCB1 pEC50 ±SEM (human CB1 [3]; AtT20-hCB1, DNC = did not converge, ND = < 50% change in fluorescence at 10 μM)
COC(=O)[C@@H](NC(=O)c1cn(CCCCC#N)c2ccccc12)C(C)(C)C [Compound 18, methyl (S)-2-(1-(4-cyanobutyl)-1H-indole-3-carboxamido)-3,3-dimethylbutanoate]	6.61	124 to 127	2.04	111 ± 3 % CP55,940	2.68	101 ± 4 % CP55,940	4.04						
COC(=O)[C@H](Cc1ccccc1)NC(=O)c1cn(CCCCC#N)c2ccccc12 [Compound 19, methyl (1-(4-cyanobutyl)-1H-indole-3-carbonyl)-L-phenylalaninate]	85.1	144 to 146	8.71	109 ± 3 % CP55,940	35.5	105 ± 3 % CP55,940	8.44						
COC(=O)[C@H](Cc1ccccc1)NC(=O)c1nn(CCCCC#N)c2ccccc12 [Compound 21, methyl (1-(4-cyanobutyl)-1H-indazole-3-carbonyl)-L-phenylalaninate]	20.9	82.5 to 84.5	3.8	115 ± 3 % CP55,940	8.72	100 ± 2 % CP55,940	3.24						
COC(=O)[C@H](Cc1ccccc1)NC(=O)c1cn(CCCCC#N)c2ncccc12 [Compound 24, methyl (1-(4-cyanobutyl)-1H-pyrrolo[2,3-b]pyridine-3-carbonyl)-L-phenylalaninate]	380	102 to 105	55	110 ± 5 % CP55,940	189	104 ± 2 % CP55,940	14.3	186					
CC(C)[C@H](NC(=O)c1cn(CCCCF)c2ccccc12)C(N)=O [Compound 25, (S)-N-(1-amino-3-methyl-1-oxobutan-2-yl)-1-(4-fluorobutyl)-1H-indole-3-carboxamide]	1000	225 to 227	82	108 ± 3 % CP55,940	96.5	97 ± 2 % CP55,940	23.5						
CC(C)(C)[C@H](NC(=O)c1cn(CCCCF)c2ccccc12)C(N)=O [Compound 26, (S)-N-(1-amino-3,3-dimethyl-1-oxobutan-2-yl)-1-(4-fluorobutyl)-1H-indole-3-carboxamide]		92 to 94	8	110 ± 4 % CP55,940	40.4	105 ± 4 % CP55,940	44.1		34.7				
NC(=O)[C@H](Cc1ccccc1)NC(=O)c1cn(CCCCF)c2ccccc12 [Compound 27, (S)-N-(1-amino-1-oxo-3-phenylpropan-2-yl)-1-(4-fluorobutyl)-1H-indole-3-carboxamide]	3200	102 to 104	170			108 ± 8 % CP55,940	306		3160	174	submaximal agonist activity	82 ± 4^d % CP55,940	DNC^b
CC(C)[C@H](NC(=O)c1nn(CCCCF)c2ccccc12)C(N)=O [Compound 28, (S)-N-(1-amino-3-methyl-1-oxobutan-2-yl)-1-(4-fluorobutyl)-1H-indazole-3-carboxamide]		188 to 190	8.5	107 ± 2 % CP55,940	5.98	96 ± 1 % CP55,940	4.85		132				
CC(C)(C)[C@H](NC(=O)c1nn(CCCCF)c2ccccc12)C(N)=O [Compound 29, (S)-N-(1-amino-3,3-dimethyl-1-oxobutan-2-yl)-1-(4-fluorobutyl)-1H-indazole-3-carboxamide]	4.07	77 to 79	0.69	116± 2 % CP55,940	1.61	103 ± 2 % CP55,940	5.28						
